# Earlier results in patent US20240165053A1, “Topical Medicament for Use in Treatment of Anorectal Inflammation” (priority 2022, published 2024).
# System: swollen hemorrhoids
structure (smiles),measurement,setting,value
"OC[C@H]1O[C@@](CO)(O[C@H]2O[C@H](CO)[C@@H](O)[C@H](O)[C@H]2O)[C@@H](O)[C@@H]1O [granulated sugar, Sucrose]",time of application after which the difference is noticeable with the naked eye,topical application on prolapsed hemorrhoids,10 min
same,edema reduction of swollen hemorrhoids,"topical application, medical studies",immediate edema reduction
